In PubChem BioAssay AID1083 (University of Pittsburgh Molecular Library Screening Center, 2008):
Activity calls are given as the source filed them. The rule behind the calls is not given here.

Target: Serine/threonine-protein kinase PLK1 (Homo sapiens) (UniProt P53350)
Assay: PLK1 polo-box domain peptide-binding inhibitors, SAR follow-up, biochemical, fluorescence polarization, purchased analogs, concentration response (AID 1083)
Settings: Plk1 PBD peptide binding

Sequence of Serine/threonine-protein kinase PLK1 (Homo sapiens) (P53350 whole entry, looked up, the tested form may be a part): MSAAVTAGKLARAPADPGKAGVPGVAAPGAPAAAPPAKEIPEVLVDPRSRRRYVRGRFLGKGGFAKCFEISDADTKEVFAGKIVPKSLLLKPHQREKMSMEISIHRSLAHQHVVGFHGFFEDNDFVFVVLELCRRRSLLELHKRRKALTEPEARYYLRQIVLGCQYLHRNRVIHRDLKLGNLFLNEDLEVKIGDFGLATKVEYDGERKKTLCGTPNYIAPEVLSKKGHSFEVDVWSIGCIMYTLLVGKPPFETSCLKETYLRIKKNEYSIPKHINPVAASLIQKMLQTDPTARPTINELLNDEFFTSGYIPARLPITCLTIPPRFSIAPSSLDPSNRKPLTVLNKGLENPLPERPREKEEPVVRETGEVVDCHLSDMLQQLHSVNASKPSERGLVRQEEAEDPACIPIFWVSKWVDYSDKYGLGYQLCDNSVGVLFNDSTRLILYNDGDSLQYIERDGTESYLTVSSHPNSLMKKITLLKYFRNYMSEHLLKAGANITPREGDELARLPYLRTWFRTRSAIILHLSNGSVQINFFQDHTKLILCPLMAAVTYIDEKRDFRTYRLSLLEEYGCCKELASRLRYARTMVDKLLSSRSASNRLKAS

CC1CN(c2cc3nccnc3cc2F)CC(C)O1 (stereo not drawn)
IC50: > 50 µM (inactive)

CC(=O)N(CN1C(=O)c2ccccc2C1=O)c1ccc(Br)cc1
IC50: > 50 µM (inactive)

CCOC(=O)c1ccc(NC(=O)c2cc3ccccc3c(=O)o2)cc1
IC50: > 50 µM (inactive)

Cn1c(=O)[nH]c2nnc(-c3ccc(C(F)(F)F)cc3)nc2c1=O
IC50: > 50 µM (inactive)

CCOC(=O)c1ccc(NC(=O)C2C3C=CC(C3)C2C(=O)O)cc1 (stereo not drawn)
IC50: > 50 µM (inactive)

O=C1NC(=O)C(=Cc2c3ccccc3cc3ccccc23)C(=O)N1
IC50: > 50 µM (inactive)

CC(=O)N(/C=C1\Sc2ccccc2C1=O)c1cc(C(F)(F)F)ccc1Cl
IC50: > 50 µM (inactive)

Cn1c(=O)[nH]c2nnc(-c3ccc([N+](=O)[O-])cc3)nc2c1=O
IC50: > 50 µM (inactive)

CC(=O)N(CN1C(=O)c2ccccc2C1=O)c1cccc(C)c1
IC50: > 50 µM (inactive)

CC(=O)N(CN1C(=O)c2ccccc2C1=O)c1cccc(F)c1
IC50: > 50 µM (inactive)

COc1ccc(N(CN2C(=O)c3ccccc3C2=O)C(=O)C(F)(F)F)cc1
IC50: > 50 µM (inactive)

CCn1c(N/C(O)=C/C(O)(C(F)(F)F)C(F)(F)F)nc2ccccc21
IC50: > 50 µM (inactive)

CC(=O)N(CN1C(=O)c2ccccc2C1=O)c1cc(Br)ccc1C
IC50: > 50 µM (inactive)

CCOC(=O)c1ccc(NC(=O)C2CC(=O)N=C(N)S2)cc1 (stereo not drawn)
IC50: > 50 µM (inactive)

COc1cc(C=C2C(=O)NC(=O)NC2=O)cc(Cl)c1O
IC50: > 50 µM (inactive)

CCOC(=O)c1ccc(NC(=O)C2C3CCC(C3)C2C(=O)O)cc1 (stereo not drawn)
IC50: > 50 µM (inactive)

CN(C)c1ccc(-c2nnc3c(n2)c(=O)n(C)c(=O)n3C)cc1
IC50: > 50 µM (inactive)

CCOC(=O)c1ccc(NC(=O)c2cc(C)cc(C)c2)cc1
IC50: > 50 µM (inactive)

CCCOC(=O)c1ccc(NC(=O)c2c(F)c(F)c(F)c(F)c2F)cc1
IC50: > 50 µM (inactive)

CC(=O)N(CN1C(=O)c2ccccc2C1=O)c1ccccc1C
IC50: > 50 µM (inactive)

CCN(CC)CCOC(=O)c1ccc(N=Cc2c(O)n(-c3c(C)cc(C)cc3C)c(=O)[nH]c2=O)cc1
IC50: > 50 µM (inactive)

Cc1ccccc1-c1nnc2[nH]c(=O)n(C)c(=O)c2n1
IC50: > 50 µM (inactive)

CCOc1ccc(-c2nc3c(=O)n(C)c(=O)nc-3n(C)n2)cc1OC
IC50: 0.022 µM
